Values of other authors as cited in patent publication US20230218514A1, “FLOATING SUSTAINED RELEASE TABLET FORMULATION OF DROXIDOPA AND METHOD THEREOF” (priority 2022, published 2023).

Assays:
dogs = details: dog, in vivo
rats = details: rat, in vivo
mice = details: mouse, in vivo
monkeys = details: monkey, in vivo
[1] = not given; remark: listed apart in the source
[2] = not given; remark: listed apart in the source

Question: What does the source list for N[C@H](C(=O)O)[C@H](O)c1ccc(O)c(O)c1 [Droxidopa, (2S,3R)-2-amino-3-(3,4-dihydroxyphenyl)-3-hydroxypropanoic acid]?
Answer: Acute oral LD50 (dogs): more than 5 g/kg; Hepatotoxicity (patients; human, in vivo): not found; Side effects, share of patients (patients; nausea, headache, dizziness, increased B.P, hallucination and anorexia): 0.78%; Cmax (in vivo): 3160 ng/mL; Elimination half life (in vivo): 2.5 h; Half-life (in vivo): 2 to 3 h; Route of elimination (in vivo): mainly eliminated through urine; Tmax (in vivo): 1 to 4 h; Volume of distribution (in vivo): 200 L; Oral bioavailability (oral): 90%; Acute oral LD50 (rats): more than 5 g/kg; Acute oral LD50 (mice): more than 5 g/kg; Acute oral LD50 (monkeys): more than 5 g/kg; Solubility [1]: ≥ 3000 µg/mL; Stability in alkaline medium ([1]; alkaline medium): highly unstable; Solubility in dilute HCl ([1]; dilute HCl): Soluble; Solubility in organic solvents ([1]; methanol, glacial acetic acid, ethanol, acetone, chloroform): Practically insoluble; Solubility in water ([1]; water): Slightly soluble; Protein binding [2]: 75%
